Results: publication PMC12355554, “Development of novel mitochondrial pyruvate carrier inhibitors for breast cancer treatment” (The Journal of Biological Chemistry, 2025)
Entries after “also recorded” stand apart in the source; their conditions may differ.

Tests used:
[1] = molecular target: T1, mitochondrial pyruvate carrier (MPC) (Mus musculus, UniProt P63030+Q9D023); assay: Seahorse XFe96 Pyr-driven respiration in rPFO-permeabilized 4T1 cells; type: cell-based, murine; conditions: read-out: IC50, inhibition of Pyr-driven respiration
T1 construct: host or cells: 4T1 murine breast cancer cells, rPFO-permeabilized
T1 sequence (P63030 1-109): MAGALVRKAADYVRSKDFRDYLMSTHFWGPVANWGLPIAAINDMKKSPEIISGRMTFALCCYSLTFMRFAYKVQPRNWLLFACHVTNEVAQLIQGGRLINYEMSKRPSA
T1 sequence (Q9D023 1-127): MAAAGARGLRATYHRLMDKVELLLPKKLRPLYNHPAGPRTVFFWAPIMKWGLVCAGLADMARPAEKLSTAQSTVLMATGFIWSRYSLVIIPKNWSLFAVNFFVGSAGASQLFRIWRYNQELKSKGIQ
Description: After validating the ability of rPFO to permeabilize 4T1 cells without damaging mitochondria, we sought to investigate the ability of candidate compounds to inhibit Pyr-driven respiration in these cells (Fig. 1, D–G). In this regard, 4T1 cells were seeded in Seahorse XFe96 well plates and were incubated to reach confluence (∼18–24 h) in growth media (+serum). Growth media were then aspirated, and cells were washed with MAS buffer to remove serum and endogenous metabolic substrates. Serum- and substrate-starved cells were then incubated for equilibration in MAS buffer in a non-CO2 incubator. Inhibitors, rPFO, and substrate milieus were prepared in MAS buffer to be injected in succession to allow for real-time observation of the effects of compound-treated cultures on oxygen consumption rates (OCRs) when compared with vehicle (dimethyl sulfoxide [DMSO])-treated cells. Equilibrated intact cells were allowed to establish basal respiratory rates, followed by the injection of candidate compounds C1 to C4 at varying dose-titrated concentrations, respectively, and acute decreases in OCR were observed (Fig. 1, D–G). Compound exposure was performed in intact cells to avoid influence of rPFO on acute cellular targets. Cells were then exposed to rPFO, followed by the carbonyl cyanide-p-trifluoromethoxyphenylhydrazone (FCCP)–stimulated Pyr substrate milieu, which consisted of Pyr, malate (Mal), and dichloroacetate (DCA) to fuel uninhibited Pyr respiratory flux and maximal respiration. Mal and DCA were included to allow for continuous TCA cycle function without acetyl CoA feedback–mediated inhibition (Mal) or Pyr dehydrogenase–regulated inhibition (DCA) of Pyr uptake. Here, we observed a dose-dependent inhibition of Pyr-driven respiration in cells treated with the candidate compounds, allowing for logarithmic dose–response curves to be generated, and 50% inhibitory concentrations (IC50) to be calculated (Fig. 1, D–G). Finally, complex I and […] were injected to halt respiration and end the assay. […] In this regard, the fluoro-aminocarboxycoumarin derivative C4 has been designated as the lead candidate for further investigation.
(§1) Permeabilized cell assays were performed using rPFO as described previously. 4T1 cells were seeded (20,000 cells/well) onto Seahorse XFe96 well plates and incubated overnight in growth media at 37 °C and 5% CO2 for adherence. On the day of the assay, growth media were aspirated and replaced with MAS buffer (70 mM sucrose, 220 mM mannitol, 10 mM potassium phosphate monobasic, 5 mM magnesium chloride, 2 mM Hepes, and 1 mM EGTA) after 3X rinse of growth media to remove serum and endogenous metabolic substrates, and incubated at 37 °C in a non-CO2 incubator. Respective inhibitor and substrate milieu's were prepared in MAS buffer for port injections A–D at 8X, 9X, 10X, and 11X the target cell concentrations to account for intrinsic dilution factor of in situ injections of each port. […] Final substrate concentrations for specific tests were as follows: (5 mM Pyr , 0.5 mM Mal, 2 mM DCA; 10 mM glutamate, 0.5 mM Mal, 2 mM DCA; 10 mM succinate, 2 μM rotenone; 20 mM methyl Pyr, 5 mM Pyr, 0.5 mM Mal, and 2 mM DCA). ATP rate assays and mitochondrial stress tests were performed according to the manufacturer's (Agilent) instructions.

[2] = system: glutamate-driven respiration in 4T1 cells; assay: Seahorse glutamate-driven respiration in permeabilized 4T1 cells; type: cell-based, murine; conditions: Glu/Mal, candidate compounds 1 μM
Description: Although our initial experiments and previous literature illustrate the ability of the candidate compounds to inhibit Pyr-driven respiration, we sought to investigate the ability of candidate compounds to inhibit respiration fueled by other metabolic substrates, glutamate and succinate (Fig. 2). Glutamate, similar to Pyr oxidation, results in NADH equivalents that fuel complex I-mediated respiration, and succinate metabolism offers FADH2 for electrons in complex II-driven respiratory processes. […] To further validate the mode of action of the candidate compounds, a series of similar Seahorse experiments were employed (Fig. 2, A–C). In these experiments, 4T1 cells were first permeabilized and were then offered metabolic substrates Pyr (Pyr/Mal; Fig. 2A), glutamate (Glu/Mal, Fig. 2B), or succinate (Fig. 2C), and the resulting OCR was observed. As described previously, Mal and DCA were included in the substrate milieu of glutamate respiration experiments. […] To validate that inhibition of Pyr respiration is due to mitochondrial Pyr uptake and not other Pyr-processing enzymes (i.e., Pyr dehydrogenase), a parallel experiment using methyl pyruvate (MePyr) was employed (Fig. 2, E and F). MePyr is permeable to the mitochondrial membranes, where in the matrix, mitochondrial esterase hydrolysis activity provides Pyr.
as §1

4T1 cells = assay: Seahorse mitochondrial stress test in intact 4T1 cells; type: cell-based, murine
MDA-MB-231 = assay: MTT cell proliferation inhibition assay, MDA-MB-231; type: cell-based; conditions: Homo sapiens, 72 h, 3 days
Description: (§2) Confluent cell cultures were treated with trypsin and resuspended at 5 × 10^4 cells/ml. To a 96-well plate, 100 μl of the 5 × 10^4 cells/ml solution were added and allowed to incubate at 37 °C, 5% CO2 for 24 h. Compounds were then added and allowed to incubate for 3 days. […] Following the 4-h incubation with 3-(4,5-dimethylthiazol-2-yl)-2,5-diphenyltetrazolium bromide, 100 μl of SDS (0.1 g/ml, 0.01 N HCl) was added, and 96-well plates were allowed to incubate for an additional 4 h. […] Treatment absorbances are taken as percentages of the average untreated absorbances and plotted against log(concentration) in GraphPad Prism 10 (GraphPad Software, Inc) to generate effective concentration values where 50% of the cells are not proliferating (EC50).

4T1 = assay: MTT cell proliferation inhibition assay, 4T1; type: cell-based, murine; conditions: Mus musculus, 72 h, 3 days, average ± SEM
Description: as §2

[3] = Maximum tolerated dose study, oral dosing, 21 days; type: in vivo, severe combined immunodeficient mice
[4] = molecular target: T1, mitochondrial pyruvate carrier (MPC); assay: Pyr-driven respiration in permeabilized 67NR cells; type: cell-based, murine
physchem = conditions: water
Description: Starting with the carboxylic acid 24, various salt forms were generated to increase the water solubility.

For `CN(Cc1ccc(C(F)(F)F)cc1)c1ccc2cc(C(=O)O)c(=O)oc2c1.NC(CO)(CO)CO` [C5, 1,3-dihydroxy-2-(hydroxymethyl)propan-2-aminium 7-(methyl(4-(trifluoromethyl)benzyl)amino)-2-oxo-2H-chromene-3-carboxylate], the IC50 [1] was 0.0144 ± 0.0005 µM, the “effect on glutamate-driven respiration” value [2] was “does not alter; also recorded: did not alter” and the “compensatory glycolysis (extracellular acidification rates)” value (4T1 cells) was “dose-dependent decrease”. The “mitochondrial respiration (OCR)” value (4T1 cells; media with glucose, Pyr, glutamine) was “inhibited mitochondrial respiration in a dose-dependent fashion”, the EC50 (MDA-MB-231) was greater than 1000 µM and the EC50 (4T1) was 23.4 ± 4.9 µM. The MTD at 21 days ([3]; female, BALB/c, mouse, in vivo, oral, daily for 21 days) was 40 mg/kg, the “changes in body weight or behavior” value ([3]; oral 10, 20, 40 mg/kg daily for 21 days) was “not any significant changes” and the “effect on pyruvate driven respiration” value [4] was “inhibits”. For the same molecule, the solubility (physchem) was 10000 µg/mL.
